According to ChEMBL document CHEMBL1201862, “PubChem BioAssay data set” (2004):
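These data come from cells grown in 96-well plates and exposed to compound for 48 hours at five concentrations. GI50 is the concentration that inhibits growth by half.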 Calls of active or inactive are those of the source. Cut-off read from the data, not from the text of the source: active = GI50 up to about 1.1 µM and inactive = higher.

Key:
Test in all cases: DTP human tumour cell line panel, 48 h
ACHN = system: ACHN
MDA-N = system: MDA-N
SF-268 = system: SF-268
Hs-578T = system: Hs-578T
SF-295 = system: SF-295
A498 = system: A498
Malme-3M = system: Malme-3M
SK-MEL-2 = system: SK-MEL-2
NCI-H23 = system: NCI-H23
CCRF-CEM = system: CCRF-CEM
OVCAR-8 = system: OVCAR-8
786-0 = system: 786-0
HOP-92 = system: HOP-92
IGROV-1 = system: IGROV-1
NCI-H460 = system: NCI-H460
NCI/ADR-RES = system: NCI/ADR-RES
SK-MEL-5 = system: SK-MEL-5
HT-29 = system: HT-29
KM12 = system: KM12
K562 = system: K562

| Structure (SMILES) | GI50 (ACHN) | GI50 (MDA-N) | GI50 (SF-268) | GI50 (Hs-578T) | GI50 (SF-295) | GI50 (A498) | GI50 (Malme-3M) | GI50 (SK-MEL-2) | GI50 (NCI-H23) | GI50 (CCRF-CEM) | GI50 (OVCAR-8) | GI50 (786-0) | GI50 (HOP-92) | GI50 (IGROV-1) | GI50 (NCI-H460) | GI50 (NCI/ADR-RES) | GI50 (SK-MEL-5) | GI50 (HT-29) | GI50 (KM12) | GI50 (K562) |
| --- | --- | --- | --- | --- | --- | --- | --- | --- | --- | --- | --- | --- | --- | --- | --- | --- | --- | --- | --- | --- |
| O=C(O)/C=C(/C(=O)O)C12CCN3CC4=CCOC5CC(=O)NC1C5C4CC32 (stereo not given) | > 100 µM (inactive) | > 100 µM (inactive) | > 100 µM (inactive) | > 100 µM (inactive) | > 100 µM (inactive) | > 100 µM (inactive) | > 100 µM (inactive) | > 100 µM (inactive) | > 100 µM (inactive) | > 100 µM (inactive) | > 100 µM (inactive) | > 100 µM (inactive) | > 100 µM (inactive) | > 100 µM (inactive) | > 100 µM (inactive) | > 100 µM (inactive) | > 100 µM (inactive) | > 100 µM (inactive) | > 100 µM (inactive) | > 100 µM (inactive) |
| CCOC(=O)c1cccc(/N=N/Nc2cccc(C(=O)OCC)c2)c1 | 53.8 µM (inactive) | 5.66 µM (inactive) | 27 µM (inactive) | 30.8 µM (inactive) | 15.6 µM (inactive) | 30.8 µM (inactive) | 43.8 µM (inactive) | 34.2 µM (inactive) | 43.2 µM (inactive) | > 100 µM (inactive) | 25.5 µM (inactive) | 17.9 µM (inactive) | 22.3 µM (inactive) | 38.9 µM (inactive) | 64 µM (inactive) | 56.9 µM (inactive) | 23.4 µM (inactive) | 52.8 µM (inactive) | > 100 µM (inactive) | 71.4 µM (inactive) |
| N=C(N)N/N=C(\c1ccc(F)cc1)c1ccc(C(F)(F)F)cc1 | 0.611 µM (active) | 0.0748 µM (active) | 0.593 µM (active) | 0.36 µM (active) | 0.264 µM (active) | < 0.01 µM (active) | 0.851 µM (active) | 1.24 µM (inactive) | 0.382 µM (active) | 0.329 µM (active) | 0.376 µM (active) | 0.294 µM (active) | 1.46 µM (inactive) | 0.284 µM (active) | 0.332 µM (active) | 0.344 µM (active) | 0.466 µM (active) | 0.412 µM (active) | 0.203 µM (active) | 0.132 µM (active) |
| COc1cc(C)cc2c(-c3c(O)cc(O)c4c3C[C@H](C)N[C@H]4C)cc(-c3cc(-c4c(O)cc(O)c5c4C[C@H](C)N[C@H]5C)c4cc(C)cc(OC)c4c3O)c(O)c12 | > 100 µM (inactive) | 52 µM (inactive) | > 100 µM (inactive) | > 100 µM (inactive) | 66.4 µM (inactive) | > 100 µM (inactive) | > 100 µM (inactive) | > 100 µM (inactive) | > 100 µM (inactive) | > 100 µM (inactive) | > 100 µM (inactive) | 26.9 µM (inactive) | > 100 µM (inactive) | > 100 µM (inactive) | 75.3 µM (inactive) | > 100 µM (inactive) | > 100 µM (inactive) | 36 µM (inactive) | 56.2 µM (inactive) | > 100 µM (inactive) |
| CNC(=O)NC(CCCCNC(=O)OCc1ccccc1)C(=O)OCc1ccccc1 (stereo not given) | 41.9 µM (inactive) | 19.5 µM (inactive) | 57.3 µM (inactive) | 79.8 µM (inactive) | 60.8 µM (inactive) | 20.3 µM (inactive) | 27 µM (inactive) | 17.8 µM (inactive) | 47.6 µM (inactive) | 14.7 µM (inactive) | 61.4 µM (inactive) | 80.2 µM (inactive) | 16.6 µM (inactive) | > 100 µM (inactive) | > 100 µM (inactive) | > 100 µM (inactive) | 15.9 µM (inactive) | > 100 µM (inactive) | > 100 µM (inactive) | 31.3 µM (inactive) |
| COc1cc2c(cc1OC)C(=O)/C(=C/c1ccccc1)C2 | > 100 µM (inactive) | > 93.8 µM (inactive) | 73.3 µM (inactive) | > 100 µM (inactive) | 76.9 µM (inactive) | 4.54 µM (inactive) | > 83 µM (inactive) | > 100 µM (inactive) | > 74.8 µM (inactive) | 27.5 µM (inactive) | > 100 µM (inactive) | 90.6 µM (inactive) | > 70 µM (inactive) | > 67 µM (inactive) | 53.7 µM (inactive) | > 66.2 µM (inactive) | 37.2 µM (inactive) | 45.3 µM (inactive) | 60.8 µM (inactive) | 11.9 µM (inactive) |
| O=C1c2c(Br)sc(Br)c2C(NC(=O)C(F)(F)F)C1O (stereo not given) | 29.5 µM (inactive) | 19.1 µM (inactive) | 34 µM (inactive) | 32.8 µM (inactive) | 18.7 µM (inactive) | > 100 µM (inactive) | 20.2 µM (inactive) | 16.7 µM (inactive) | 22.6 µM (inactive) | 26.3 µM (inactive) | 20.3 µM (inactive) | 19.3 µM (inactive) | 18.8 µM (inactive) | 20.2 µM (inactive) | 20.4 µM (inactive) | 29.1 µM (inactive) | 19.5 µM (inactive) | 24.7 µM (inactive) | 30.1 µM (inactive) | 12.1 µM (inactive) |
| C/C(C=O)=C/[C@@]1(C)O[C@@H](C)[C@@](C)(O)[C@@H]1O | 24.5 µM (inactive) | 44.3 µM (inactive) | 25.2 µM (inactive) | 49.5 µM (inactive) | 41.1 µM (inactive) | 83.6 µM (inactive) | 52 µM (inactive) | 80.5 µM (inactive) | 33.3 µM (inactive) | 36.9 µM (inactive) | 18.8 µM (inactive) | 17 µM (inactive) | 37.2 µM (inactive) | > 100 µM (inactive) | 22.2 µM (inactive) | 21.9 µM (inactive) | 64.6 µM (inactive) | > 100 µM (inactive) | 35.4 µM (inactive) | 7.94 µM (inactive) |
| OB(O)c1ccccc1C#Cc1ccccc1B(O)O | 20.7 µM (inactive) | 21.2 µM (inactive) | 11.5 µM (inactive) | 14.6 µM (inactive) | 22.9 µM (inactive) | 3.04 µM (inactive) | 17.1 µM (inactive) | 11.5 µM (inactive) | 24 µM (inactive) | 20.1 µM (inactive) | 22.6 µM (inactive) | 28.4 µM (inactive) | 23.3 µM (inactive) | 3.14 µM (inactive) | 14.4 µM (inactive) | 25.5 µM (inactive) | 14.8 µM (inactive) | 42.7 µM (inactive) | 13.9 µM (inactive) | 38.3 µM (inactive) |
| CC(C)(C)OC(=O)NC(CSCc1ccc(C(=O)c2ccccc2)cc1)C(=O)N1CCN(CCCCN2c3ccccc3Sc3cc(N=[N+]=[N-])ccc32)CC1 (stereo not given) | > 100 µM (inactive) | > 100 µM (inactive) | > 100 µM (inactive) | > 100 µM (inactive) | > 100 µM (inactive) | > 100 µM (inactive) | > 100 µM (inactive) | > 100 µM (inactive) | > 100 µM (inactive) | > 100 µM (inactive) | > 100 µM (inactive) | > 100 µM (inactive) | > 100 µM (inactive) | > 100 µM (inactive) | > 100 µM (inactive) | > 100 µM (inactive) | > 100 µM (inactive) | > 100 µM (inactive) | > 100 µM (inactive) | > 100 µM (inactive) |
| C=C1C(=O)O[C@@H]2[C@H]1C[C@@H](O)[C@H](C)[C@@](O)(C(=O)/C=C/C)[C@H]2OC(=O)C(C)CC (stereo not given in full) | 2.99 µM (inactive) | 3.08 µM (inactive) | 15.4 µM (inactive) | 2.72 µM (inactive) | 37.5 µM (inactive) | 18.7 µM (inactive) | 2 µM (inactive) | 22.5 µM (inactive) | 5.31 µM (inactive) | 0.0428 µM (active) | 2.22 µM (inactive) | 2.61 µM (inactive) | 3.21 µM (inactive) | 2.58 µM (inactive) | 28.8 µM (inactive) | 11 µM (inactive) | 7.28 µM (inactive) | 2.24 µM (inactive) | 14.8 µM (inactive) | 2.28 µM (inactive) |
| N#C/C=C\c1ccc(-c2cc(C(F)(F)F)cc(C(F)(F)F)c2)o1 | > 100 µM (inactive) | 22 µM (inactive) | 25.9 µM (inactive) | 18.4 µM (inactive) | 19.4 µM (inactive) | 26.5 µM (inactive) | 64.4 µM (inactive) | 15.6 µM (inactive) | 13.3 µM (inactive) | 47 µM (inactive) | 23 µM (inactive) | 27.2 µM (inactive) | 20.7 µM (inactive) | 47.2 µM (inactive) | 86.3 µM (inactive) | 41.6 µM (inactive) | 14.9 µM (inactive) | 94.4 µM (inactive) | 49 µM (inactive) | 42.1 µM (inactive) |
| c1ccc(CSC(SCc2ccccc2)c2ccc3c(c2)OCO3)cc1 | > 10 µM (inactive) | > 10 µM (inactive) | > 10 µM (inactive) | > 10 µM (inactive) | > 10 µM (inactive) | > 10 µM (inactive) | > 10 µM (inactive) | > 10 µM (inactive) | > 10 µM (inactive) | > 10 µM (inactive) | > 10 µM (inactive) | > 10 µM (inactive) | > 10 µM (inactive) | > 10 µM (inactive) | > 10 µM (inactive) | > 10 µM (inactive) | > 10 µM (inactive) | > 10 µM (inactive) | > 10 µM (inactive) | > 10 µM (inactive) |
| COC(=O)C1=CC2CCCC1(O)C(C(C)=O)C2 (stereo not given) | > 100 µM (inactive) | 97.9 µM (inactive) | > 21.7 µM (inactive) | > 100 µM (inactive) | > 67.5 µM (inactive) | > 100 µM (inactive) | > 100 µM (inactive) | > 68.7 µM (inactive) | > 77.1 µM (inactive) | 21.1 µM (inactive) | 44.4 µM (inactive) | 20.2 µM (inactive) | 41.4 µM (inactive) | 15.4 µM (inactive) | > 85.1 µM (inactive) | > 63.2 µM (inactive) | > 100 µM (inactive) | > 100 µM (inactive) | > 81.1 µM (inactive) | 34 µM (inactive) |
